This data set can be described thus: Handling and storage stability of crystalline Form-SP9. The note with it: handling and storage for longer time; solid state. The data set is classed as physicochemical. From the text: Crystalline Form-SP9 retains its stoichiometry even on exposure to uncontrolled environmental conditions. This stable form thus, offers various advantages in terms of storage, shelf life and favorable impurity profile.

Molecules are shown by their SMILES.

Take `Nc1nc2[nH]cc(CCc3ccc(C(=O)N[C@@H](CCC(=O)[O-])C(=O)[O-])cc3)c2c(=O)[nH]1.[K+].[K+]` [Form-SP9, Pemetrexed dipotassium]: the “stability of the crystal form (morphology and physicochemical characteristics)” value is given as “very stable crystal lattice”.
